Reference: patent US20230095836A1, “SUBSTITUTED 5,6-DIPHENYL-3(2H)-PYRIDAZINONES FOR USE AS FUNGICIDES” (FMC Corporation, priority 2020, published 2023)

Key:
Assay type in all cases: in vivo
Alternaria solani = test: Test F: test suspension sprayed on tomato seedlings, inoculated next day with Alternaria solani (tomato early blight); visual disease rating (100 = 100% disease control, 0 = no control; dash = not tested)
Protocol: (§1) The resulting test suspensions were then used in Tests A-F. The test suspension was sprayed to the point of run-off on tomato seedlings. The following day the seedlings were inoculated with a spore suspension of Alternaria solani (the causal agent of tomato early blight) and incubated in a saturated atmosphere at 27° C. for 48 h, and then moved to a growth chamber at 20° C. for 3 days, after which time visual disease ratings were made. A rating of 100 indicates 100% disease control and a rating of 0 indicates no disease control (relative to the controls). A dash (—) indicates the compound was not tested.

Zymoseptoria tritici = test: Test A: test solution sprayed on wheat seedlings, inoculated next day with Zymoseptoria tritici (wheat leaf blotch); disease rating (100 = 100% disease control, 0 = no control; dash = not tested)
Protocol: The resulting test suspensions were then used in Tests A-F. The test solution was sprayed to the point of run-off on wheat seedlings. The following day the seedlings were inoculated with a spore suspension of Zymoseptoria tritici (the causal agent of wheat leaf blotch) and incubated in a saturated atmosphere at 24° C. for 48 h, and then moved to a growth chamber at 20° C. for 17 days, after which time disease ratings were made. A rating of 100 indicates 100% disease control and a rating of 0 indicates no disease control (relative to the controls). A dash (—) indicates the compound was not tested.

Botrytis cinerea = test: Test E: test suspension sprayed on tomato seedlings, inoculated next day with Botrytis cinerea (tomato Botrytis); visual disease rating (100 = 100% disease control, 0 = no control; dash = not tested)
Protocol: as §1, with “Botrytis cinerea” for “Alternaria solani”, “Botrytis)” for “early blight)”, “20°” for “27°”, “24°” for “20°”

[1] = tested on: Puccinia recondita f. sp. tritici; test: Test B: test solution sprayed on wheat seedlings, inoculated next day with Puccinia recondita f. sp. tritici (wheat leaf rust); disease rating (100 = 100% disease control, 0 = no control; dash = not tested)
Excerpt: The resulting test suspensions were then used in Tests A-F. The test solution was sprayed to the point of run-off on wheat seedlings. […] A rating of 100 indicates 100% disease control and a rating of 0 indicates no disease control (relative to the controls). A dash (—) indicates the compound was not tested.

Phakopsora pachyrhizi = test: Test D: test solution sprayed on soybean seedlings, inoculated next day with Phakopsora pachyrhizi (Asian soybean rust); visual disease rating (100 = 100% disease control, 0 = no control; dash = not tested)
Excerpt: General protocol for preparing test suspensions for Tests A-F: the test compounds were first dissolved in acetone in an amount equal to 3% of the final volume and then suspended at the desired concentration (in ppm) in acetone and purified water (50/50 mix by volume) containing 250 ppm of the surfactant PEG400 (polyhydric alcohol esters). The resulting test suspensions were then used in Tests A-F.
The test solution was sprayed to the point of run-off on soybean seedlings. The following day the seedlings were inoculated with a spore suspension of Phakopsora pachyrhizi (the causal agent of Asian soybean rust) and incubated in a saturated atmosphere at 22° C. for 24 h and then moved to a growth chamber at 22° C. for 8 days, after which time visual disease ratings were made.
A rating of 100 indicates 100% disease control and a rating of 0 indicates no disease control (relative to the controls). A dash (—) indicates the compound was not tested.

[2] = tested on: Blumeria graminis f. sp. tritici; test: Test C: test suspension sprayed on wheat seedlings, inoculated next day with Blumeria graminis f. sp. tritici (wheat powdery mildew); visual disease rating (100 = 100% disease control, 0 = no control; dash = not tested)
Protocol: as §1, with “on wheat” for “on tomato”, “spore dust” for “spore suspension”, “of Blumeria graminis f. sp. tritici, (also known as Erysiphe graminis f. sp. tritici, the” for “of Alternaria solani (the”, “of wheat powdery mildew)” for “of tomato early blight)”, “in” for “in a saturated atmosphere at 27° C. for 48 h, and then moved to”, “for 8” for “for 3”

SMILES | Test F disease control rating (Alternaria solani; 50 ppm) [%] | Test A disease control rating (Zymoseptoria tritici; 50 ppm) [%] | Test E disease control rating (Botrytis cinerea; 50 ppm) [%] | Test B disease control rating ([1]; 50 ppm) [%] | Test D disease control rating (Phakopsora pachyrhizi; 50 ppm) [%] | Test C disease control rating ([2]; 50 ppm) [%] | also measured
COc1ccc(Cl)c(-c2nn(C)c(=O)c(OC)c2-c2ccc(F)cc2Cl)c1 [Compound 101] | 99 | 100 | 99 | 100 | 100 | 99 | 
CCn1nc(-c2cc(OC)cc(OC)c2)c(-c2cc(OC)cc(OC)c2)cc1=O [Compound 3] |  |  |  |  |  |  | Test F disease control rating (Alternaria solani; 250 ppm): 0%; Test A disease control rating (Zymoseptoria tritici; 250 ppm): 7%; Test E disease control rating (Botrytis cinerea; 250 ppm): 0%; Test B disease control rating ([1]; 250 ppm): 0%; Test D disease control rating (Phakopsora pachyrhizi; 250 ppm): 0%; Test C disease control rating ([2]; 250 ppm): 0%
COc1cc(F)c(Br)c(-c2nn(C)c(=O)c(OC)c2-c2ccc(F)cc2Cl)c1 [Compound 165] | 100 | 100 | 95 | 100 | 92 | 99 | 
CCn1nc(-c2cc(OC)cc(OC)c2Br)c(-c2c(F)cccc2F)c(Br)c1=O [Compound 16] | 94 | 99 | 99 | 97 | 84 | 97 | 
COc1ccc(F)c(-c2nn(C)c(=O)c(C)c2-c2ccc(F)cc2Cl)c1 [Compound 138] | 100 | 100 | 93 | 100 | 100 | 100 | 
CCn1nc(-c2cc(OC)cc(OC)c2Br)c(-c2c(F)cccc2F)c(C#N)c1=O [Compound 100] | 93 | 100 | 99 | 100 | 100 | 99 | 
CCn1nc(-c2cc(OC)cc(OC)c2)c(-c2c(F)cccc2F)cc1=O [Compound 32] |  |  |  |  |  |  | Test F disease control rating (Alternaria solani; 250 ppm): 0%; Test A disease control rating (Zymoseptoria tritici; 250 ppm): 0%; Test E disease control rating (Botrytis cinerea; 250 ppm): 80%; Test B disease control rating ([1]; 250 ppm): 9%; Test D disease control rating (Phakopsora pachyrhizi; 250 ppm): 0%; Test C disease control rating ([2]; 250 ppm): 29%
COc1cccc(-c2nn(C)c(=O)c(Cl)c2-c2ccc(F)cc2Cl)c1Cl [Compound 140] | 100 | 99 | 99 | 100 | 100 | 99 | 
COc1cc(OC)c(Br)c(-c2nn(C)c(=O)c(C)c2-c2ccc(F)cc2Cl)c1 [Compound 64, 6-(2-bromo-3,5-dimethoxyphenyl)-5-(2-chloro-4-fluorophenyl)-2,4-dimethyl-3(2H)-pyridazinone] |  |  |  |  |  |  | pest or weed control at 50 ppm (Alternaria solani; 50 ppm): 100%; pest or weed control at 50 ppm (Zymoseptoria tritici; 50 ppm): 100%; pest or weed control at 50 ppm (Botrytis cinerea; 50 ppm): 100%; pest or weed control at 50 ppm ([1]; 50 ppm): 100%; pest or weed control at 50 ppm (Phakopsora pachyrhizi; 50 ppm): 100%; pest or weed control at 50 ppm ([2]; 50 ppm): 100%
Cn1nc(-c2c(F)cccc2F)c(-c2c(F)cccc2F)cc1=O [Compound 5, 5,6-bis(2,6-difluorophenyl)-2-methyl-3(2H)-pyridazinone] |  |  |  |  |  |  | pest or weed control at 250 ppm (Alternaria solani; 250 ppm): 0%; pest or weed control at 250 ppm (Zymoseptoria tritici; 250 ppm): 42%; pest or weed control at 250 ppm (Botrytis cinerea; 250 ppm): 99%; pest or weed control at 250 ppm ([1]; 250 ppm): 0%; pest or weed control at 250 ppm (Phakopsora pachyrhizi; 250 ppm): 0%; pest or weed control at 250 ppm ([2]; 250 ppm): 100%
CCOC(=O)c1c(-c2ccc(F)cc2Cl)c(-c2ccc(F)cc2Cl)nn(C)c1=O [Compound 153] |  |  |  |  |  |  | Test F disease control rating (Alternaria solani; 250 ppm): 0%; Test A disease control rating (Zymoseptoria tritici; 250 ppm): 0%; Test E disease control rating (Botrytis cinerea; 250 ppm): 0%; Test B disease control rating ([1]; 250 ppm): 0%; Test D disease control rating (Phakopsora pachyrhizi; 250 ppm): 71%; Test C disease control rating ([2]; 250 ppm): 96%
COc1cc(OC)c(F)c(-c2nn(C)c(=O)c(Cl)c2-c2ccc(F)cc2Cl)c1 [Compound 155] | 100 | 99 | 100 | 100 | 100 | 100 | 
COc1ccc(Cl)c(-c2nn(C)c(=O)c(Cl)c2-c2ccccc2F)c1 [Compound 183] | 100 | 100 | 98 | 100 | 94 | 96 | 
COc1ccc(Cl)c(-c2nn(C)c(=O)c(Cl)c2-c2ccccc2Cl)c1 [Compound 184] | 99 | 100 | 96 | 100 | 99 | 96 | 
COc1cc(OC)c(Br)c(-c2nn(C)c(=O)c(OC)c2-c2ccc(F)cc2Cl)c1 [Compound 79] | 100 | 100 | 97 | 100 | 100 | 100 | 
CCc1c(-c2c(F)cccc2F)c(-c2cccc(OC)c2Cl)nn(C)c1=O [Compound 178] | 100 | 100 | 93 | 100 | 100 | 100 | 
Cn1nc(-c2ccc(F)cc2Cl)c(-c2ccc(F)cc2Cl)c(C(=O)O)c1=O [Compound 144] |  |  |  |  |  |  | Test F disease control rating (Alternaria solani; 250 ppm): 0%; Test A disease control rating (Zymoseptoria tritici; 250 ppm): 0%; Test E disease control rating (Botrytis cinerea; 250 ppm): 0%; Test B disease control rating ([1]; 250 ppm): 0%; Test D disease control rating (Phakopsora pachyrhizi; 250 ppm): 74%; Test C disease control rating ([2]; 250 ppm): 0%
Cn1nc(-c2ccccc2F)c(-c2ccc(F)cc2Cl)c(Cl)c1=O [Compound 72] | 99 | 100 | 98 | 99 | 75 | 99 | 
